Assays:
[1] = biological target: T1, H-ras FPT (Ras-CVLS farnesylation by partially purified rat brain farnesyl protein transferase (FPT)) (Rattus norvegicus, UniProt Q02293+Q04631); assay: FPT IC50 (inhibition of farnesyl protein transferase, in vitro enzyme assay); assay type: biochemical
T1 construct: partially purified rat brain farnesyl protein transferase (FPT); from tissue; host or cells: rat brain, partially purified

[2] = test system: Ras processing in COS cells; assay: COS IC50, cell-based assay: COS cells activity inhibition of Ras processing
Procedure: 2. Cell-based assay. COS IC50 values refer to the COS cells activity inhibition of Ras processing, are determined by the methods disclosed in […] or WO 95/10516.

Structure (SMILES)	IC50 [1] [nM]	IC50 [2] [nM]
O=C(NOCC(=O)N1CCC([C@H]2c3ncc(Br)cc3CCc3cc(Cl)cc(Br)c32)CC1)c1ccccc1 [Example 1]	27	–
O=C(CO/N=C/c1cc[n+]([O-])cc1)N1CCC([C@H]2c3ncc(Br)cc3CCc3cc(Cl)cc(Br)c32)CC1 [Example 6]	–	690
NOCC(=O)N1CCC([C@H]2c3ncc(Br)cc3CCc3cc(Cl)cc(Br)c32)CC1 [Example 15, (+)-1-[(aminooxy)acetyl]-4-(3,10-dibromo-8-chloro-6,11-dihydro-5H-benzo[5,6]cyclohepta[1,2-b]pyridin-11(R)-yl)piperidine]	32	–

From patent US5945430A, “Aminooxyamide tricyclic inhibitors of farnesyl-protein transferase” (Schering Corporation, priority 1998, dated 1999)
